Results from patent US8445409B2, “Use of 5-benzyloxymethyl-1,2-isoxazoline derivatives as a herbicide” (Moghu Research Center Ltd., priority 2007, dated 2013).
Entries after “also recorded” stand apart in the source; their conditions may differ.

How the values were obtained:
[1] = tested on: Soybean; assay: Upland pot test, pre-/post-emergence spray, visual rating; format: in vivo, soybean (GLYMX); conditions: for Visual measurement: Crops, Soybean: 2 weeks after spray, 0-10 scale (10=completely killed)
Excerpt: (§1) To a rectangular plastic pot having a surface area of 300 cm^2, mixed soils including blend bed soil (Boonong, Horticultural Bed Soil No. 3) and sandy loam soil were filled (mixing ratio, 1:1). Seeds of the eight different types of weeds including gramineous weed such as barnyardgrass, large crabgrass, green foxtail, fall panicum, and broadleaf weed such as common cocklebur, velvetleaf, Indian joint-vetch, and morningglory were sown. To the other pot containing the same soil mixture, seeds of the five different types of crops including corn, soybean, cotton, wheat and rice were sown. Pots were kept in a greenhouse of which temperature was maintained at 25˜30° C. (day) or 15˜25° C. (night), and regularly watered.
(§2) After fourteen days and when the crops and the weeds reached their three-leaf stage, the other set of a crop pot and a weed pot were prepared by the same method as described above. Then, “test substance” was sprayed thereto. In this case, spray treatment to the plants after they have grown for two weeks corresponded to post-emergence treatment while spray treatment to the seeds right after the sowing corresponded to pre-emergence treatment. Spray was carried out by using a track sprayer (R&D Sprayer, USA) equipped with a Teejet 8002 nozzle (Spraying Systems Co., USA). Spray volume was adjusted to 300 L/ha. The spray solution was prepared by dissolving the “test substance” in acetone and adding the same volume of 0.2% (v/v) Tween 20 aqueous solution. Dosage of the test substance was 500, 250, 125, 62.5 or 31.3 g/ha. Two weeks after the spray of the test substance, efficacy and phytotoxic effect to the crops and the weeds were visually measured based on a 0 to 10 scale (0: no efficacy, 10: completely killed).

[2] = tested on: Cotton; assay: as above; format: in vivo, cotton (GOSHI); conditions: for Visual measurement: Crops, Cotton: 2 weeks after spray, 0-10 scale (10=completely killed)
Excerpt: as §1, §2

[3] = tested on: Large crabgrass; assay: as above; format: in vivo, large crabgrass (DIGSA); conditions: 2 weeks after spray, 0-10 scale (10=completely killed)
Excerpt: as §1, §2

[4] = tested on: Velvetleaf; assay: as above; format: in vivo, velvetleaf (ABUTH); conditions: 2 weeks after spray, 0-10 scale (10=completely killed)
Excerpt: as §1, §2

[5] = tested on: Morningglory; assay: as above; format: in vivo, morningglory (IPOSP); conditions: 2 weeks after spray, 0-10 scale (10=completely killed)
Excerpt: as §1, §2

[6] = tested on: Large crabgrass; assay: Herbicidal activity at different growth stages, fresh weight suppression; format: in vivo; conditions: for Suppression ratio relative to the biomass of the untreated group: Large crabgrass 1 leaf / Suppression ratio relative to the biomass of the untreated group: Large crabgrass 2 leaf / Suppression ratio relative to the biomass of the untreated group: Large crabgrass 3 leaf / Suppression ratio relative to the biomass of the untreated group: Large crabgrass 4 leaf / Suppression ratio relative to the biomass of the untreated group: Large crabgrass PRE: fresh weight two weeks after treatment
Experimental: To a cup pot having a surface area of 100 cm^2 wherein mixed soils including blend bed soil (Boonong, Horticultural Bed Soil No. 3) and sandy loam soil were filled (mixing ratio, 1:1), seeds of large crabgrass and annual bluegrass were sown consecutively at an one week interval. The pots were moistened by sub-irrigation, and kept in a greenhouse maintained at 25˜30° C. (day) or 15˜25° C. (night). The said weeds were grown to various growth stages from pre-emergence to the four-leaf stage. Then, they were applied with the test substance of the present invention at dosage of 2, 1, 0.5, or 0.25 kg/ha. As a reference herbicide, Dithiopyr (32% EC, manufactured by Dongbu Hannong Chemical Company), was applied at 0.96, 0.48, or 0.24 kg/ha. Spray volume was adjusted to 2,000 L/ha. The method to spray of the test substance and prepare spray solutions were the same as described above. The reference herbicide was used after it was diluted with 0.2% (v/v) Tween 20 aqueous solution. The test was conducted in a randomized block design with three replicates. Two weeks after the treatment, plant parts remained above the pot soil surface were cut and the fresh weight was weighed. Results are given by a suppression ratio relative to the biomass that was obtained from the untreated group (see, Table 3).

[7] = tested on: broadleaf weeds such as common cocklebur, Indian joint-vetch, velvetleaf, morningglory; assay: Upland pot test, broadleaf weeds as a group; format: in vivo
Excerpt: as §1, §2

[8] = tested on: Large crabgrass; assay: Upland pot test, pre-/post-emergence spray, visual rating; format: in vivo, large crabgrass (DIGSA); conditions: pre-emergence application, 0.06~0.12 kg/ha
[9] = post-emergence foliar spray at three leaf stage, 31.2 g/ha
[10] = post-emergence foliar spray at three leaf stage, 62.5 g/ha
[11] = post-emergence foliar spray at three leaf stage, 125 g/ha
[12] = post-emergence foliar spray at three leaf stage, 250 g/ha
[13] = post-emergence foliar spray at three leaf stage, 500 g/ha
[14] = pre-emergence soil treatment, 31.2 g/ha
[15] = pre-emergence soil treatment, 62.5 g/ha
[16] = pre-emergence soil treatment, 125 g/ha
[17] = pre-emergence soil treatment, 250 g/ha
[18] = pre-emergence soil treatment, 500 g/ha

Compound: Cc1ccsc1C1=NOC(C)(COCc2c(F)cccc2F)C1 (stereo not drawn) [test substance, 5-(2,6-difluorobenzyl)oxymethyl-5-methyl-3-(4-methylthiophen-5-yl)-1,2-isoxazoline]
- Visual measurement: Crops, Soybean [1, 9]: 0
- Visual measurement: Crops, Soybean [1, 10]: 0
- Visual measurement: Crops, Soybean [1, 11]: 0
- Visual measurement: Crops, Soybean [1, 12]: 2
- Visual measurement: Crops, Soybean [1, 13]: 6
- Safety to soybean (in words) ([1]; post-emergence treatment): not safe
- Visual measurement: Crops, Soybean [1, 14]: 0
- Visual measurement: Crops, Soybean [1, 15]: 0
- Visual measurement: Crops, Soybean [1, 16]: 0
- Visual measurement: Crops, Soybean [1, 17]: 0
- Visual measurement: Crops, Soybean [1, 18]: 0
- Visual measurement: Crops, Cotton [2, 9]: 0
- Visual measurement: Crops, Cotton [2, 10]: 0
- Visual measurement: Crops, Cotton [2, 11]: 0
- Visual measurement: Crops, Cotton [2, 12]: 0
- Visual measurement: Crops, Cotton [2, 13]: 0
- Safety to cotton (in words) ([2]; post-emergence treatment): safe
- Visual measurement: Crops, Cotton [2, 14]: 0
- Visual measurement: Crops, Cotton [2, 15]: 0
- Visual measurement: Crops, Cotton [2, 16]: 0
- Visual measurement: Crops, Cotton [2, 17]: 0
- Visual measurement: Crops, Cotton [2, 18]: 0
- Visual measurement: Gramineous weed, Large crabgrass [3, 9]: 1
- Visual measurement: Gramineous weed, Large crabgrass [3, 10]: 3
- Visual measurement: Gramineous weed, Large crabgrass [3, 11]: 5
- Visual measurement: Gramineous weed, Large crabgrass [3, 12]: 6
- Visual measurement: Gramineous weed, Large crabgrass [3, 13]: 9
- Visual measurement: Gramineous weed, Large crabgrass [3, 14]: 1
- Visual measurement: Gramineous weed, Large crabgrass [3, 15]: 9
- Visual measurement: Gramineous weed, Large crabgrass [3, 16]: 9
- Visual measurement: Gramineous weed, Large crabgrass [3, 17]: 10
- Visual measurement: Gramineous weed, Large crabgrass [3, 18]: 10
- Visual measurement: Broadleaf weed, Velvetleaf [4, 9]: 0
- Visual measurement: Broadleaf weed, Velvetleaf [4, 10]: 0
- Visual measurement: Broadleaf weed, Velvetleaf [4, 11]: 1
- Visual measurement: Broadleaf weed, Velvetleaf [4, 12]: 3
- Visual measurement: Broadleaf weed, Velvetleaf [4, 13]: 6
- Visual measurement: Broadleaf weed, Velvetleaf [4, 14]: 0
- Visual measurement: Broadleaf weed, Velvetleaf [4, 15]: 0
- Visual measurement: Broadleaf weed, Velvetleaf [4, 16]: 0
- Visual measurement: Broadleaf weed, Velvetleaf [4, 17]: 0
- Visual measurement: Broadleaf weed, Velvetleaf [4, 18]: 0
- Visual measurement: Broadleaf weed, Morningglory [5, 9]: 0
- Visual measurement: Broadleaf weed, Morningglory [5, 10]: 0
- Visual measurement: Broadleaf weed, Morningglory [5, 11]: 0
- Visual measurement: Broadleaf weed, Morningglory [5, 12]: 1
- Visual measurement: Broadleaf weed, Morningglory [5, 13]: 3
- Visual measurement: Broadleaf weed, Morningglory [5, 14]: 0
- Visual measurement: Broadleaf weed, Morningglory [5, 15]: 0
- Visual measurement: Broadleaf weed, Morningglory [5, 16]: 1
- Visual measurement: Broadleaf weed, Morningglory [5, 17]: 2
- Visual measurement: Broadleaf weed, Morningglory [5, 18]: 2
- Suppression ratio relative to the biomass of the untreated group: Large crabgrass 1 leaf ([6]; 1 kg/ha): 100%
- Suppression ratio relative to the biomass of the untreated group: Large crabgrass 2 leaf ([6]; 1 kg/ha): 98%
- Suppression ratio relative to the biomass of the untreated group: Large crabgrass 3 leaf ([6]; 1 kg/ha): 94%
- Suppression ratio relative to the biomass of the untreated group: Large crabgrass 4 leaf ([6]; 1 kg/ha): 70%
- Suppression ratio relative to the biomass of the untreated group: Large crabgrass PRE ([6]; 1 kg/ha): 100%
- Suppression ratio relative to the biomass of the untreated group: Large crabgrass 1 leaf ([6]; 2 kg/ha): 100%
- Suppression ratio relative to the biomass of the untreated group: Large crabgrass 2 leaf ([6]; 2 kg/ha): 98%
- Suppression ratio relative to the biomass of the untreated group: Large crabgrass 3 leaf ([6]; 2 kg/ha): 97%
- Suppression ratio relative to the biomass of the untreated group: Large crabgrass 4 leaf ([6]; 2 kg/ha): 76%
- Suppression ratio relative to the biomass of the untreated group: Large crabgrass PRE ([6]; 2 kg/ha): 100%
- Suppression of large crabgrass ([6]; 3-leaf stage, 1 kg/ha or more): ≥ 90%
- Suppression ratio relative to the biomass of the untreated group: Large crabgrass 2 leaf ([6]; .12 kg/ha): 45%
- Suppression ratio relative to the biomass of the untreated group: Large crabgrass 4 leaf ([6]; .12 kg/ha): 16%
- Suppression ratio relative to the biomass of the untreated group: Large crabgrass 1 leaf ([6]; .25 kg/ha): 100%
- Suppression ratio relative to the biomass of the untreated group: Large crabgrass 2 leaf ([6]; .25 kg/ha): 81%
- Suppression ratio relative to the biomass of the untreated group: Large crabgrass 3 leaf ([6]; .25 kg/ha): 72%
- Suppression ratio relative to the biomass of the untreated group: Large crabgrass 4 leaf ([6]; .25 kg/ha): 33%
- Suppression ratio relative to the biomass of the untreated group: Large crabgrass PRE ([6]; .25 kg/ha): 100%
- Suppression ratio relative to the biomass of the untreated group: Large crabgrass 1 leaf ([6]; .5 kg/ha): 100%
- Suppression ratio relative to the biomass of the untreated group: Large crabgrass 2 leaf ([6]; .5 kg/ha): 93%
- Suppression ratio relative to the biomass of the untreated group: Large crabgrass 3 leaf ([6]; .5 kg/ha): 86%
- Suppression ratio relative to the biomass of the untreated group: Large crabgrass 4 leaf ([6]; .5 kg/ha): 65%
- Suppression ratio relative to the biomass of the untreated group: Large crabgrass PRE ([6]; .5 kg/ha): 100%
- Suppression of large crabgrass ([6]; PRE to 2-leaf stage, 0.5 kg/ha or above): ≥ 90%
- Control of large crabgrass (in words) ([6]; over four-leaf stage): suppressed but were not completely controlled
- Control of broadleaf weeds (in words) ([7]; post-emergence application, 500 g/ha): well controlled
- Control of broad-leaf weeds (in words) ([7]; post-emergence treatment at three-leaf stage, FIG. 2): somewhat controlled showing a mild suppression effect
- Effect on broadleaf weeds (in words) ([7]; pre-emergence treatment, FIG. 1): almost no effect; also recorded: not affected
- Control of large crabgrass (in words) [8]: almost completely
